This is an account of results in patent US11066412B2, “Substituted pyrrolo[2,1-a]phthalazines and benzo[g]pyrrolo[2,1-a]phthalazines for the treatment of cancer” (Academia Sinica, priority 2017, dated 2021).

For one experiment, the system named is H526 cells. Description: single cell electrophoresis (comet) assay. It is filed as cell-based. The conditions noted are these: FIG. 2. The source says: The data is the average of 3 independent experiments.
To this purpose, cells were encapsulating in a low-melting-point agarose suspension on a microscope slide, then were lysed in neutral or alkaline (pH>13) condition, and electrophoresis of the suspended lysed cells. The term “comet” refers to the pattern of DNA migration through the electrophoresis gel, which often resembles a comet, and the intensity of the comet tail relative to the head reflects the number of DNA breaks.

The subject of a further experiment is H211 cells. Description: combination with cisplatin, proliferation by PrestoBlue assay. It counts as cell-based. Particulars: co-administration of BO-2768 and cisplatin, ratio 1:2, 1:4 and 1:8; FIG. 9. Here is the method: In this example, whether synergistic effect on the suppression of cell proliferation exists between BO-2768 and cisplatin was investigated. To this purpose, H211 cells were treated with BO-2768 or cisplatin, alone or in combination, and proliferation rate of H211 cells was analyzed by PrestoBlue assay. Results are depicted in FIG. 9.

Consider `Cc1c(CO)c(CO)c2c3cc4ccccc4cc3c(N(C)C)nn12` [BO-2768, (6-(Dimethylamino)-3-methylbenzo[g]pyrrolo[2,1-α]phthalazine-1,2-diyl)dimethanol], for which, in the experiment with H526 cells, the “DNA damage (comet tail)” value is reported as “capable of inducing DNA breaks in a dose dependent manner”. Besides, the “numbers of proliferated H211 cells, combination effect” value in the experiment on H211 cells is recorded as “synergistic reduction in the numbers of proliferated H211 cells”.
